Experimental data published in patent US8426408B2, “Pyrimidine inhibitors of kinases” (AbbVie Inc., priority 2009, dated 2013).
pIC50, pKi: −log10 of the molar value.

How the values were obtained:
Aurora B = biological target: T1, Aurora B (Homo sapiens, UniProt Q96GD4); assay: Aurora B enzyme inhibition (time-resolved fluorescence, histone H3 peptide); assay type: biochemical; details: 1 mM ATP
T1 construct: Active Aurora B enzyme (recombinant residues 1-344)
Outline: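 Recombinant Aurora B (residues 1-344) with GST-INCENP phosphorylated biotinylated histone H3 (1-21) peptide at 1 mM ATP in HEPES pH 7.4 with MgCl2, orthovanadate and Triton X-100 for 1 h. After EDTA stop, the phosphopeptide was detected by TR-FRET (Eu-cryptate anti-phospho-H3 / SA-APC, 665/615 nm ratio). IC50 from an exponential fit.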

Aurora A = biological target: T2, Aurora A (Homo sapiens, UniProt O14965); assay: Aurora A enzyme inhibition (time-resolved fluorescence, STK substrate-2); assay type: biochemical; details: 1 mM ATP
T2 sequence (O14965 1-403): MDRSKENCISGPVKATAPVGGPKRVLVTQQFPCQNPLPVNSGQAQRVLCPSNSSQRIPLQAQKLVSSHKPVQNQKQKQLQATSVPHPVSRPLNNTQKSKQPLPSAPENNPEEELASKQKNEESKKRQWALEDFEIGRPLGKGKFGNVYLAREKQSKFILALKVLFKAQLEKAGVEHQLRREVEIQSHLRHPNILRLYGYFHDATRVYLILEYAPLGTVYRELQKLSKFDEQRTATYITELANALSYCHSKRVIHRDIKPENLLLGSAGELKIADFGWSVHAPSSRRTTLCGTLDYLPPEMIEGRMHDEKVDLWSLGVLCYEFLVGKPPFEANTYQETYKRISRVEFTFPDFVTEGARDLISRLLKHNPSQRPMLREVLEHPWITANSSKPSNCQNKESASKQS
Outline: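 Active enzyme incubated 1 h with biotinylated STK substrate-2, 1 mM ATP and inhibitor in Hepes pH 7.4 with MgCl2, orthovanadate and Triton X-100. EDTA stop; phosphopeptide detected by Eu-cryptate anti-phospho-STK/SA-XL665 TR-FRET (665/615 nm ratio); IC50 by exponential fit.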

KDR [1] = biological target: T3, KDR (Homo sapiens, UniProt P35968); assay: KDR HTRF in vitro kinase assay; assay type: biochemical; design: purified enzyme (His6-KDR 789-1354, MW 63 kD); His6 (N); details: 1 mM ATP; read-out: KDR enzyme inhibition data (Ki)
Outline: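 His6-KDR 789-1354 (7 ng/well) with 0.5 μM biotinylated peptide substrate and 1 mM ATP in HEPES pH 7.1, MgCl2/MnCl2, 60 min at room temperature. EDTA-quenched, detected by streptavidin-XL-665 plus Eu-kryptate anti-phosphotyrosine HTRF after 3 h; IC50 from 620/665 nm ratio.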
Target sequence in this assay (P35968 789-1354): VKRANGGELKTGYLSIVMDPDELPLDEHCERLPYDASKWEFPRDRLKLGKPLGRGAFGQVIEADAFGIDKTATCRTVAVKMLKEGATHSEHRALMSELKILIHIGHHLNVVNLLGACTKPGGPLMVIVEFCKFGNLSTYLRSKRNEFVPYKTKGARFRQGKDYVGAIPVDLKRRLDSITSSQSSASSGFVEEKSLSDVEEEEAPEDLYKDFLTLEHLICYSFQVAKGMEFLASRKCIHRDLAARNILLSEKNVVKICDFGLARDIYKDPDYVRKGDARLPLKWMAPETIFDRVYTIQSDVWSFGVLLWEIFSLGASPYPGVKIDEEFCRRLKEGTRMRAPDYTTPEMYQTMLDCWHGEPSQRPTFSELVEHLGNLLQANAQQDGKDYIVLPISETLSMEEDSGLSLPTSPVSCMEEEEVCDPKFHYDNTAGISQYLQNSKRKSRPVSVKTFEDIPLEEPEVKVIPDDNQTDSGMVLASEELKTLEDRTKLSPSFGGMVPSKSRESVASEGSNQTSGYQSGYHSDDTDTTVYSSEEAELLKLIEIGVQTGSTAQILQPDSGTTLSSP

KDR [2] = biological target: T3, KDR; assay: KDR cellular assay (KDR receptor phosphorylation ELISA); assay type: cell-based; design: expressed in transfected cells; host or cells: 3T3 (embryonic mouse) cells; details: KDR transfected 3T3 (embryonic mouse) cells, VEGF stimulated; read-out: IC50 inhibition of KDR phosphorylation
Description: The ability of compounds to inhibit KDR receptor phosphorylation in cells was measured by ELISA following the protocol outlined below.
KDR transfected 3T3 (embryonic mouse) cells added to 96-well tissue culture plates at 20,000 cells/well.
Plates were covered and placed in a 37° C. humidified incubator with 5% CO2 overnight, to allow cells to adhere.
Coating solution was prepared: 500 l/vial PBS was added to 2 vials of anti-KDR antibody, then 1 ml solubilized anti-KDR antibody into 29.0 ml bicarbonate buffer. Coating solution was added to all wells at 150 µl/well (final amount anti-KDR=1 µg/well) and placed at 4° C. overnight.
Blocking solution (2.1 g dry milk+42 ml PBS=5% milk in PBS) was placed on a stir plate for 30 min.
Assay plates were washed twice with PBST, and 200 µl/well blocking solution was added to all wells. Assay plates were covered with plate sealers and placed in a 37° C. microplate chamber until just before cell lysate transfer.
Compound stocks were thawed or prepared in DMSO as 5 mM stocks.
Dilution medium (DM, 1% DMSO in DMEM) and compounds were diluted by half-log increments for concentration response analysis.
Conditioned media was dumped from the tissue culture plates, and plates were blotted dry.
Standard solution in DM, compound dilutions in DM, or DM (for high control, negative control, and reference wells) were added to the tissue culture plates, 25 µl/well. Each pair of tissue culture plates was prepared with the same compounds, solutions, and layout; and will be combined later; Tissue culture plates were covered and placed in the 37° C. microplate chamber for 20 min.
VEGF solution was prepared: 110 l VEGF stock+10.89 ml DM=100 ng/ml VEGF
VEGF solution or DM (for reference wells) was added to the tissue culture plates, 25 μl/well.
Tissue culture plates were covered and placed in the 37° C. microplate chamber for 10 min.
RIPA buffer was prepared (240 l NaVO3 stock+240 l PIC stock+24 l NaF stock+23.496 ml RIPA base) and added to the tissue culture plates, 50 µl/well.
Tissue culture plates were covered and placed on a Labline plate shaker for 10 min (speed about 5).
Assay plates were washed twice with PBST.
Cell lysates from matching wells of each pair of tissue culture plates were combined to =200 µl/well, and were pipetted up and down to mix. Cell lysates were transferred to the assay plates using the same layouts, 170 µl/well.
Assay plates were covered with plate sealers and placed on a Labline plate shaker for 2 hr (speed about 5).
Assay plates were washed 5 times with PBST.
Biotin antibody solution was prepared (16 l biotin antibody stock+32 ml PBST=2000× dilution) and added to the assay plates, 150 µl/well.
Assay plates were covered with plate sealers and placed on a Labline plate shaker for 90 min
Streptavidin-HRP solution was prepared (16 l streptavidin-HRP stock+32 ml PBST=2000× dilution) and added to the assay plates, 150 µl/well.
Assay plates were covered with plate sealers and placed on a Labline plate shaker for 60 min
Substrate was added to the assay plates, 100 µl/well.
As assay plates developed, the plates were each monitored on a Molecular Devices Spectramax set to 650 nm, until the signal in the high control wells was around 0.6 OD and the signal in the negative control wells was around 0.1-0.15 OD.
Stop solution was added to the assay plates, 100 µl/well.
The plates were read on a Molecular Devices Spectramax set to 450 nm.
Data was calculated by Assay Explorer, using same-plate high control wells as 0% and reference standard wells as 100% inhibition of KDR phosphorylation. IC50 values were calculated by non-linear regression analysis of the concentration response data.
Target sequence in this assay (P35968 20-1356): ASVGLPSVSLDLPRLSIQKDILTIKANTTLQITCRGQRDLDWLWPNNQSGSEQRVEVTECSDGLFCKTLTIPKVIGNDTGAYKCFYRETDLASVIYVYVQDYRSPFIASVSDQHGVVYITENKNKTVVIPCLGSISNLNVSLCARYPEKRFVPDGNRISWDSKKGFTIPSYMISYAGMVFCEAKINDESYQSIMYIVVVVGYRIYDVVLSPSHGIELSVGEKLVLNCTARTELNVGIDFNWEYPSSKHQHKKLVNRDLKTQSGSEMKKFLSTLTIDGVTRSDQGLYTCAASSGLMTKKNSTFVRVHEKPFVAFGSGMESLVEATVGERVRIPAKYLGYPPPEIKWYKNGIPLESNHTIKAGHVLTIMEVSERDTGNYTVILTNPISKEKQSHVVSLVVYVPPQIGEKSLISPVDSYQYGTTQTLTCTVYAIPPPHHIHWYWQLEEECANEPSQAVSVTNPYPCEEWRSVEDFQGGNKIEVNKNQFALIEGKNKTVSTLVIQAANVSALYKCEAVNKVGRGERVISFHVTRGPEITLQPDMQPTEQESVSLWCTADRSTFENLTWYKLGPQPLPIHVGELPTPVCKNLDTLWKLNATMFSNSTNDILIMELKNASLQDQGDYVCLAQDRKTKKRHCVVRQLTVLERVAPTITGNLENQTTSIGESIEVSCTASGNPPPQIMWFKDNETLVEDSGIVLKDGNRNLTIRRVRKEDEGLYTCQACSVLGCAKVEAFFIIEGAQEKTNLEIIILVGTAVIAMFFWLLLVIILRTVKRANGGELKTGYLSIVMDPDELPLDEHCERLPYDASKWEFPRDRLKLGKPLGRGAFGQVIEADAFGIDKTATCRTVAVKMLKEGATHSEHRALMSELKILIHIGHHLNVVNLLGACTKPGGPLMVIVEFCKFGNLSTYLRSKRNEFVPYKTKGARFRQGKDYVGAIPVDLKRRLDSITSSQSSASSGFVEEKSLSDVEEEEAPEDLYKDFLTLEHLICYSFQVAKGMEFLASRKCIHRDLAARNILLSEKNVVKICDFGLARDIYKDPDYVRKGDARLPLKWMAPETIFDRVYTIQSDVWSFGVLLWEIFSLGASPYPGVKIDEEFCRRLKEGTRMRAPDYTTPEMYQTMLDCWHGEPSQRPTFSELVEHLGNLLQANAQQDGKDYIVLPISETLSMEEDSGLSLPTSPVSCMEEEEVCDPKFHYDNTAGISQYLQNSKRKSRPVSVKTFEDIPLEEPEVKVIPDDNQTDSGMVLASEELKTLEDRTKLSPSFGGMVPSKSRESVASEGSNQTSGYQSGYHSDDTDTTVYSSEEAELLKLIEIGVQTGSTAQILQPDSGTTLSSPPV

T1 sequence (Q96GD4 whole entry, the tested form may be a part): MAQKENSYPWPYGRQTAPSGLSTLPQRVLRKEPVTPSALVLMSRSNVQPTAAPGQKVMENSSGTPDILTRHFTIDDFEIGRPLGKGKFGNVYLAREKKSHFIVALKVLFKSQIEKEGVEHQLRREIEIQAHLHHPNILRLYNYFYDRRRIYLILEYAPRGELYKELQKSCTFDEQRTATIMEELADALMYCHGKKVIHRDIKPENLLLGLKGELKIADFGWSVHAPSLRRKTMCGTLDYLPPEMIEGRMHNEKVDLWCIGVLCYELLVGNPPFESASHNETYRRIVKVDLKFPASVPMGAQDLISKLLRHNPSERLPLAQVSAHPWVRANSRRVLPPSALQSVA
T1 sequence (Q9NQS7 826-918 partner limits assumed): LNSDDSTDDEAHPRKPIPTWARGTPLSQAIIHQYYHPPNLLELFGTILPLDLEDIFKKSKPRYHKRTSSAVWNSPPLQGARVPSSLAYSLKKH

Compound	pKi (Aurora B)	pKi (Aurora A)	pKi (KDR [1])	pIC50 (KDR [2])
CCn1cc(Nc2nc(C)c(Cl)c(N[C@@H]3[C@H](C(N)=O)[C@H]4C=C[C@@H]3C4)n2)cn1.CCn1cc(Nc2nc(C)c(Cl)c(N[C@H]3[C@@H](C(N)=O)[C@@H]4C=C[C@H]3C4)n2)cn1 (mixture of isomers) [Example 126, (1S,2S,3R,4R)-3-({5-chloro-2-[(1-ethyl-1H-pyrazol-4-yl)amino]-6-methylpyrimidin-4-yl}amino)bicyclo[2.2.1]hept-5-ene-2-carboxamide and (1R,2R,3S,4S)-3-({5-chloro-2-[(1-ethyl-1H-pyrazol-4-yl)amino]-6-methylpyrimidin-4-yl}amino)bicyclo[2.2.1]hept-5-ene-2-carboxamide]	> 7.00	> 7.00	6.00 to 7.00	6.00 to 7.00
Cn1cc(Nc2ncc(Cl)c(N[C@@H]3CC=CC[C@@H]3C(N)=O)n2)cn1.Cn1cc(Nc2ncc(Cl)c(N[C@H]3CC=CC[C@H]3C(N)=O)n2)cn1 (mixture of isomers) [Example 146, (1S,6R)-6-({5-chloro-2-[(1-methyl-1H-pyrazol-4-yl)amino]pyrimidin-4-yl}amino)cyclohex-3-ene-1-carboxamide and (1R,6S)-6-({5-chloro-2-[(1-methyl-1H-pyrazol-4-yl)amino]pyrimidin-4-yl}amino)cyclohex-3-ene-1-carboxamide]	> 7.00	> 7.00	6.00 to 7.00	6.00 to 7.00
NC(=O)[C@@H]1[C@H](Nc2nc(Nc3cnn(CC(F)(F)F)c3)ncc2C(F)(F)F)[C@H]2C=C[C@@H]1C2 (racemic) [Example 32, (1S,2S,3R,4R)-3-{[2-{[1-(2,2,2-trifluoroethyl)-1H-pyrazol-4-yl]amino}-5-(trifluoromethyl)pyrimidin-4-yl]amino}bicyclo[2.2.1]hept-5-ene-2-carboxamide and (1R,2R,3S,4S)-3-{[2-{[1-(2,2,2-trifluoroethyl)-1H-pyrazol-4-yl]amino}-5-(trifluoromethyl)pyrimidin-4-yl]amino}bicyclo[2.2.1]hept-5-ene-2-carboxamide]	> 7.00	> 7.00	> 7.00	> 7.00
Cc1nn(C)c(C)c1Nc1ncc(Cl)c(N[C@H]2[C@@H](C(N)=O)[C@@H]3C=C[C@H]2C3)n1 [Example 127, (1S,2S,3R,4R)-3-({5-chloro-2-[(1,3,5-trimethyl-1H-pyrazol-4-yl)amino]pyrimidin-4-yl}amino)bicyclo[2.2.1]hept-5-ene-2-carboxamide]	6.00 to 7.00	6.00 to 7.00	6.00 to 7.00	6.00 to 7.00

Further lines, results first:

pKi (Aurora B)	pKi (Aurora A)	pKi (KDR [1])	pIC50 (KDR [2])	Compound
> 7.00	> 7.00	> 7.00	6.00 to 7.00	Cn1cc(Nc2ncc(Cl)c(N[C@@H]3CCCC[C@@H]3C(N)=O)n2)cn1.Cn1cc(Nc2ncc(Cl)c(N[C@H]3CCCC[C@H]3C(N)=O)n2)cn1 (mixture of isomers) [Example 147, (1S,2R)-2-({5-chloro-2-[(1-methyl-1H-pyrazol-4-yl)amino]pyrimidin-4-yl}amino)cyclohexanecarboxamide and (1R,2S)-2-({5-chloro-2-[(1-methyl-1H-pyrazol-4-yl)amino]pyrimidin-4-yl}amino)cyclohexanecarboxamide]
> 7.00	> 7.00	6.00 to 7.00	6.00 to 7.00	CC(C)NC(=O)[C@@H]1CCC[C@@H]1Nc1nc(Nc2cnn(C)c2)ncc1Cl.CC(C)NC(=O)[C@H]1CCC[C@H]1Nc1nc(Nc2cnn(C)c2)ncc1Cl (mixture of isomers) [Example 156, (1S,2R)-2-({5-chloro-2-[(1-methyl-1H-pyrazol-4-yl)amino]pyrimidin-4-yl}amino)-N-isopropylcyclopentanecarboxamide and (1R,2S)-2-({5-chloro-2-[(1-methyl-1H-pyrazol-4-yl)amino]pyrimidin-4-yl}amino)-N-isopropylcyclopentanecarboxamide]
